From patent US20060025344A1, “Ghrelin receptor inverse agonists for regulation of feeding behaviors” (7TM Pharma A/S, priority 2002, published 2006)
“Also recorded” adds a separate entry of the source. Non-standard residues stand in square brackets, D forms with d. Residues, ends and D or L forms follow the SMILES beside them.

Assays:
human ghrelin receptor = human ghrelin receptor (Homo sapiens, UniProt Q92847); test: Inverse agonism on basal, constitutive signalling measured by inositol phosphate turnover in transiently transfected COS-7 cells; type: cell-based; conditions: wild-type ghrelin receptor; for IC50: IP turnover
Method: Cells were transfected with Lipofectamine 2000 (Life Technologies).
(§1) Cells were washed twice in buffer, 20 mM HEPES, pH 7.4, supplemented with 140 mM NaCl, 5 mM KCl, 1 mM MgSO4, 1 mM CaCl2, 10 mM glucose, 0.05% (w/v) bovine serum; and were incubated in 0.5 ml buffer supplemented with 10 mM LiCl at 37 °C. for 30 min. […] Determinations were made in duplicates.

[1] = target: metal-ion site engineered ghrelin receptor (V:01 and V:05 substituted with His) (Homo sapiens, UniProt Q92847, L209H/M213H); test: Inverse agonism on basal inositol phosphate turnover in the metal-ion site engineered receptor; type: cell-based
Method: as §1
Metal-ion site engineering has previously been used as a molecular probe for both antagonism, agonism and inverse agonism (Elling et al., 1995; Elling et al., 1999; Rosenkilde et al., 1999). Here we built a metal-ion binding site into the ghrelin receptor by substituting residues V:01 and V:05 with His residues. 125 l-ghrelin bound with normal high affinity to the metal-ion site engineered receptor and ghrelin could stimulate IP turnover with a potency and efficacy as in the wild-type receptor (data not shown). […] A similar result has been obtained in the HHV8 encoded constitutively active ORF-74 receptor (Rosenkilde et al., 1999). […] This is important for the invention since the invention is aimed at small molecule, preferentially non-peptide compounds which will serve as inverse agonists against the receptor and most of these will conceivably as the majority of small molecule drugs in general in 7TM G protein coupled receptor bind in between the extracellular ends of the transmembrane segments.

[2] = system: lean mice, mice with diet induced obesity, ob/ob obese mice; conditions: cited from earlier work
bombesin receptor 1 = conditions: according to the literature; cited from earlier work
NK1 receptor = NK1 receptor (Homo sapiens, UniProt P25103); test: Block of SP induced accumulation of IP in COS-7 cells transiently transfected with the NK1 receptor; type: cell-based; conditions: data not shown
NK1 receptor, sequence (P25103 whole entry, species assumed): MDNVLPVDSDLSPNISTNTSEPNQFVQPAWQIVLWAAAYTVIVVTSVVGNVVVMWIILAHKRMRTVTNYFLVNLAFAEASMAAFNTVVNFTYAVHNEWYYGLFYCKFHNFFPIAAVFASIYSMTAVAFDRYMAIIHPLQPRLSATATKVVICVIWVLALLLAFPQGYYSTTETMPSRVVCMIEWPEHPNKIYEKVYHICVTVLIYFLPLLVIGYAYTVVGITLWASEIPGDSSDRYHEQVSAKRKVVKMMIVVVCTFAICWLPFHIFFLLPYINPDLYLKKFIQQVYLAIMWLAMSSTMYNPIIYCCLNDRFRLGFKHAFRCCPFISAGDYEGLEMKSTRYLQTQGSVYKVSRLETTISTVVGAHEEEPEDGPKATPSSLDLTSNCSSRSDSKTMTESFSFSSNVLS

human ghrelin receptor, sequence (Q92847 whole entry): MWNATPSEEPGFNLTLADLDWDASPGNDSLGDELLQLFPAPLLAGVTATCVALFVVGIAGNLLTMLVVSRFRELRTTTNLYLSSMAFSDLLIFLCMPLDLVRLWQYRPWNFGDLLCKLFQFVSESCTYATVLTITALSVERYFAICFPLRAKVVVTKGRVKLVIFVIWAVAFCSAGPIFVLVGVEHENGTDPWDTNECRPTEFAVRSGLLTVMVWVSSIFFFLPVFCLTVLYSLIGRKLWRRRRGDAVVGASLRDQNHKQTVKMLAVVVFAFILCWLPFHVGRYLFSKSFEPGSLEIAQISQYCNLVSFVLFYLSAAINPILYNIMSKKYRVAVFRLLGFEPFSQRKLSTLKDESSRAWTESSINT
metal-ion site engineered ghrelin receptor (V:01 and V:05 substituted with His), sequence (Q92847 whole entry L209H/M213H): as the sequence (Q92847 whole entry) above, with L209H, M213H counted along it

IC50 (human ghrelin receptor) [µM]	IC50 ([1]; metal ion site engineered receptor, IP turnover, read-out: IC50 for inverse agonism on basal, constitutive signalling) [µM]	efficacy as inverse agonist (in words) ([1]; metal-ion site engineered receptor)	Compound	efficacy as inverse agonist (in words) (human ghrelin receptor; absence of ghrelin)	energy intake / food intake ([2]; lean mice, diet induced obesity mice, ob/ob obese mice, repeated administrations for six days)	rate of gastric emptying ([2]; mice)	body weight gain ([2]; repeated administrations, obese ob/ob mice (normal and obese mice))	glycaemic control ([2]; repeated administrations, obese ob/ob mice)	antagonist potency on the bombesin receptor (in words) (bombesin receptor 1)	antagonist potency on the NK1 receptor (in words) (NK1 receptor)
6.5			O=C(O)CCc1ccc(-c2ccc(Br)cc2)n1-c1cccc(C(F)(F)F)c1 [TM27810, 3-[5-(4-Bromo-phenyl)-1-(3-trifluoromethyl-phenyl)-1H-pyrrol-2-yl]-propionic acid]	high efficacy inverse agonist; also recorded: efficiently decreases the constitutive signalling activity						
160 ± 70	4.3 ± 0.2	full inverse agonist	[Zn+2] [Zn(II)]							
			CC(C)C[C@H](NC(=O)[C@H](CC(C)C)NC(=O)[C@@H](Cc1c[nH]c2ccccc12)NC(=O)[C@H](Cc1ccccc1)NC(=O)[C@@H](Cc1c[nH]c2ccccc12)NC(=O)[C@H](CCC(N)=O)NC(=O)[C@@H](Cc1ccccc1)NC(=O)[C@@H]1CCCN1C(=O)[C@H](CCCCN)NC(=O)[C@@H]1CCCN1C(=O)[C@H](N)CCCNC(=N)N)C(N)=O [[D-Arg^1, D-Phe^5, D-Trp^7,9, Leu^11]-Substance P] (H-[dR]PKP[dF]Q[dW]F[dW]LL-NH2; N-terminus and C-terminus assumed)		decreased	reduced	decreased	improved	micromolar antagonist	micromolar antagonist; also recorded: at micromolar concentrations also has effects
